From PubChem BioAssay AID1745844 (Carcinogenic Potency Database (CPDB), 2022) come the findings set out here.

Activity calls are given as the source filed them. How the calls were made is not given here.

The test system of this data set is rodent lifetime carcinogenesis bioassay, tumor incidence TD50. Nature of the data set: chronic cancer bioassays in animals – CPDB, compiled studies (AID 1745844).
The mark [1] stands for this setting: mouse, strain B6AKF1, males, oral dosing, site: liver, lesion: hepatoma, dosed 76 weeks, study length 76 weeks.
Setting [2] is: mouse, strain B6C3F1, males, oral dosing, site: any site (literature study), lesion: several types, types named in the paper, dosed 76 weeks, study length 76 weeks.
[3] abbreviates: mouse, strain B6C3F1, males, oral dosing, site: liver, lesion: hepatoma, dosed 76 weeks, study length 76 weeks.

For `O=C1NCCN1`, the TD50 by setting is: (mouse, strain B6AKF1, females, oral dosing, site: any site (literature study), lesion: several types, types named in the paper, dosed 76 weeks, study length 76 weeks) 473 mg/kg/day (inactive); (mouse, strain B6AKF1, females, oral dosing, site: lung, lesion: adenoma, dosed 76 weeks, study length 76 weeks) 505 mg/kg/day (inactive); under setting [1], 500 mg/kg/day (inactive); under setting [2], 87.1 mg/kg/day (inactive); under setting [3], 242 mg/kg/day (inactive); (mouse, strain B6C3F1, males, oral dosing, site: lung, lesion: adenoma, dosed 76 weeks, study length 76 weeks) 242 mg/kg/day (inactive). For the same compound, the carcinogen call is, setting by setting: (mouse, strain B6AKF1, females, oral dosing, site: liver, lesion: hepatoma, dosed 76 weeks, study length 76 weeks) “negative (inactive)”; (mouse, strain B6AKF1, males, oral dosing, site: any site (literature study), lesion: several types, types named in the paper, dosed 76 weeks, study length 76 weeks) “negative (inactive)”; (mouse, strain B6AKF1, males, oral dosing, site: lung, lesion: adenoma, dosed 76 weeks, study length 76 weeks) “negative (inactive)”; (mouse, strain B6C3F1, females, oral dosing, site: any site (literature study), lesion: one or several types, types not named, dosed 76 weeks, study length 76 weeks) “negative (inactive)”; (mouse, strain B6C3F1, females, oral dosing, site: liver, lesion: hepatoma, dosed 76 weeks, study length 76 weeks) “negative (inactive)”; (mouse, strain B6C3F1, females, oral dosing, site: lung, lesion: several types, types named in the paper, dosed 76 weeks, study length 76 weeks) “negative (inactive)”.

Turning to `NC(=O)NC1NC(=O)NC1=O` (stereo not drawn), the carcinogen call by setting is: (rat, strain Fischer 344, females, in feed, site: liver, lesion: neoplastic nodule, dosed 106 weeks, study length 128 weeks) “negative (inactive)”; (rat, strain Fischer 344, males, in feed, site: liver, lesion: neoplastic nodule, dosed 106 weeks, study length 128 weeks) “negative (inactive)”.

On to `CC(=O)NCc1nc(-c2ccc([N+](=O)[O-])o2)no1`, for which the TD50 runs as follows: (rat, strain Sprague-Dawley, females, in feed, site: any site (literature study), lesion: several types, types named in the paper, dosed 46 weeks, study length 66 weeks) 5.2 mg/kg/day; (rat, strain Sprague-Dawley, females, in feed, site: kidney/pelvis, lesion: transitional-cell carcinoma, dosed 46 weeks, study length 66 weeks) 59.6 mg/kg/day; (rat, strain Sprague-Dawley, females, in feed, site: lung, lesion: alveolar-cell carcinoma, dosed 46 weeks, study length 66 weeks) 59.6 mg/kg/day; (rat, strain Sprague-Dawley, females, in feed, site: mammary gland, lesion: adenocarcinoma, dosed 46 weeks, study length 66 weeks) 10.3 mg/kg/day; (rat, strain Sprague-Dawley, females, in feed, site: mammary gland, lesion: several types, types named in the paper, dosed 46 weeks, study length 66 weeks) 6.35 mg/kg/day.

In the case of `CC(=O)NNC(=O)c1ccncc1`, the TD50 runs as follows: (mouse, strain Swiss albino, females, in drinking water, site: liver, lesion: several types, types named in the paper, dosed 94 weeks, study length 94 weeks) 55700 mg/kg/day; (mouse, strain Swiss albino, females, in drinking water, site: lung, lesion: several types, types named in the paper, dosed 94 weeks, study length 94 weeks) 319 mg/kg/day; (mouse, strain Swiss albino, males, in drinking water, site: lung, lesion: several types, types named in the paper, dosed 92 weeks, study length 92 weeks) 342 mg/kg/day. Moreover, the carcinogen call (mouse, strain Swiss albino, males, in drinking water, site: liver, lesion: hemangioma, dosed 92 weeks, study length 92 weeks) was “negative (inactive)”.

`N#CN`: the TD50 under setting [1] worked out at 191 mg/kg/day; the TD50 (mouse, strain B6C3F1, females, in feed, site: all sites, lesion: leukemia + lymphoma, dosed 100 weeks, study length 100 weeks) is 478 mg/kg/day (inactive); the TD50 (mouse, strain B6C3F1, females, in feed, site: lung, lesion: alveolar/bronchiolar adenoma + alveolar/bronchiolar carcinoma, dosed 100 weeks, study length 100 weeks) amounted to 4040 mg/kg/day; the TD50 (mouse, strain B6C3F1, females, oral dosing, site: any site (literature study), lesion: several types, types named in the paper, dosed 76 weeks, study length 76 weeks) was determined as 68 mg/kg/day; the TD50 (mouse, strain B6C3F1, males, in feed, site: all sites, lesion: hemangiosarcoma, dosed 100 weeks, study length 100 weeks) was 766 mg/kg/day (inactive); the TD50 (mouse, strain B6C3F1, males, in feed, site: any site (literature study), lesion: several types, types named in the paper, dosed 100 weeks, study length 100 weeks) amounted to 909 mg/kg/day. In addition, the TD50 is 30.9 mg/kg/day (mouse, strain B6C3F1, males, oral dosing, site: all sites, lesion: reticulum-cell sarcoma, dosed 76 weeks, study length 76 weeks); 16.7 mg/kg/day under setting [2]; 55.7 mg/kg/day under setting [3]; 267 mg/kg/day (inactive) (rat, strain Fischer 344, females, in feed, site: any site (literature study), lesion: several types, types named in the paper, dosed 107 weeks, study length 107 weeks); 7.45 mg/kg/day (inactive) (rat, strain Fischer 344, males, in feed, site: all sites, lesion: leukemia + lymphoma + neoplasm, NOS, dosed 107 weeks, study length 107 weeks).

On to `CN(N=O)C(=O)Nc1nc2ccccc2s1`, for which the TD50 is, setting by setting: (rat, strain Wistar, both sexes, by gavage, site: forestomach, lesion: papilloma, dosed 51 weeks, study length 58 weeks) 3.75 mg/kg/day; (rat, strain Wistar, both sexes, by gavage, site: forestomach, lesion: several types, types named in the paper, dosed 51 weeks, study length 58 weeks) 1.13 mg/kg/day; (rat, strain Wistar, both sexes, by gavage, site: forestomach, lesion: squamous-cell carcinoma, dosed 51 weeks, study length 58 weeks) 1.48 mg/kg/day; (rat, strain Wistar, both sexes, by gavage, site: liver, lesion: several types, types named in the paper, dosed 51 weeks, study length 58 weeks) 11.3 mg/kg/day.

A word on the TD50: it is the 50% point of the dose-response relation for the toxic effect studied.
